Test results from ChEMBL document CHEMBL4602709 (ACS Med Chem Lett, 2020).

Columns and labels:
[1] = molecular target: Tyrosine-protein kinase ABL1 (Homo sapiens, UniProt P00519); experiment: Inhibition of human ABL1 assessed as residual activity using EAIYAAPFAKKK as substrate by [gamma-33P]-ATP assay
[2] = molecular target: Voltage-gated inwardly rectifying potassium channel KCNH2 (Homo sapiens, UniProt Q12809); experiment: Inhibition of human ERG incubated for 4 hrs by competitive fluorescence tracer binding based assay
Cytochrome P450 3A4 = Cytochrome P450 3A4 (Homo sapiens, UniProt P08684); experiment: Inhibition of human recombinant CYP3A4 expressed in insect cell microsomes in presence of NADPH by fluorescence assay; type: ADME
[3] = Metabolic stability in human liver microsomes assessed as half life at 3 uM measured up to 30 mins in presence of NADPH by […] analysis; type: ADME, Microsome
[4] = Metabolic stability in mouse liver microsomes assessed as half life at 3 uM measured up to 30 mins in presence of NADPH by […] analysis; type: ADME, Microsome
[5] = molecular target: T1, Discoidin domain-containing receptor 2 (Homo sapiens) (UniProt Q16832); experiment: Inhibition of DDR2 (unknown origin) assessed as residual activity at 10 uM incubated for 5 mins in presence of [gamma-33ATP] by scintillation counting based radiometry assay relative to control
T1 sequence (whole entry): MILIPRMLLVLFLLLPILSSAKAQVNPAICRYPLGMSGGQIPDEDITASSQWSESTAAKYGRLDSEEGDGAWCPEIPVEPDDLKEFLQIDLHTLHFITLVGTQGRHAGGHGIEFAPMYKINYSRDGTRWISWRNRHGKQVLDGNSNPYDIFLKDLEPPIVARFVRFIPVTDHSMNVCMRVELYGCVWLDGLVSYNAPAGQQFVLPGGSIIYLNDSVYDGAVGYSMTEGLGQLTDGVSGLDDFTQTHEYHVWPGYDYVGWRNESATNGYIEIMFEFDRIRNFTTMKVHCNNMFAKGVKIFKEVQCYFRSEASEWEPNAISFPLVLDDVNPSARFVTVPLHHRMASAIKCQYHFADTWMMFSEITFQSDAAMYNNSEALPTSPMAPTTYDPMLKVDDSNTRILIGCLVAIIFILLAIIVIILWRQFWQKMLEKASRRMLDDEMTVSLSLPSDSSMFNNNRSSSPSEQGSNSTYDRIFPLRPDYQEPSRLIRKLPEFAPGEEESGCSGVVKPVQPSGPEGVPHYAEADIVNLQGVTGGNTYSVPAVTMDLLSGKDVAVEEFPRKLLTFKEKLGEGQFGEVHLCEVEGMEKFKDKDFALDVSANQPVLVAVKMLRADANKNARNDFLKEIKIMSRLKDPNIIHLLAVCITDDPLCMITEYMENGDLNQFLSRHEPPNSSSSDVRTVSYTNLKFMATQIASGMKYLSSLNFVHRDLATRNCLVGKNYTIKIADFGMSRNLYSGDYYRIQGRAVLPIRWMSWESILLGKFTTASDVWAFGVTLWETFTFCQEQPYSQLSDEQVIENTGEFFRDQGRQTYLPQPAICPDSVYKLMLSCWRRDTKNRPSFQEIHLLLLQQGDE

[6] = molecular target: Serine/threonine-protein kinase Nek6 (Homo sapiens, UniProt Q9HC98); experiment: Inhibition of NEK6 (unknown origin) assessed as residual activity at 10 uM incubated for 5 mins in presence of [gamma-33ATP] by scintillation counting based radiometry assay relative to control
[7] = molecular target: Proto-oncogene tyrosine-protein kinase Src (Homo sapiens, UniProt P12931); experiment: Inhibition of SRC (unknown origin) assessed as residual activity at 10 uM incubated for 5 mins in presence of [gamma-33ATP] by scintillation counting based radiometry assay relative to control
[8] = molecular target: T2, Ephrin type-B receptor 2 (Homo sapiens) (UniProt P29323); experiment: Inhibition of EPHB2 (unknown origin) assessed as residual activity at 10 uM incubated for 5 mins in presence of [gamma-33ATP] by scintillation counting based radiometry assay relative to control
T2 sequence (whole entry): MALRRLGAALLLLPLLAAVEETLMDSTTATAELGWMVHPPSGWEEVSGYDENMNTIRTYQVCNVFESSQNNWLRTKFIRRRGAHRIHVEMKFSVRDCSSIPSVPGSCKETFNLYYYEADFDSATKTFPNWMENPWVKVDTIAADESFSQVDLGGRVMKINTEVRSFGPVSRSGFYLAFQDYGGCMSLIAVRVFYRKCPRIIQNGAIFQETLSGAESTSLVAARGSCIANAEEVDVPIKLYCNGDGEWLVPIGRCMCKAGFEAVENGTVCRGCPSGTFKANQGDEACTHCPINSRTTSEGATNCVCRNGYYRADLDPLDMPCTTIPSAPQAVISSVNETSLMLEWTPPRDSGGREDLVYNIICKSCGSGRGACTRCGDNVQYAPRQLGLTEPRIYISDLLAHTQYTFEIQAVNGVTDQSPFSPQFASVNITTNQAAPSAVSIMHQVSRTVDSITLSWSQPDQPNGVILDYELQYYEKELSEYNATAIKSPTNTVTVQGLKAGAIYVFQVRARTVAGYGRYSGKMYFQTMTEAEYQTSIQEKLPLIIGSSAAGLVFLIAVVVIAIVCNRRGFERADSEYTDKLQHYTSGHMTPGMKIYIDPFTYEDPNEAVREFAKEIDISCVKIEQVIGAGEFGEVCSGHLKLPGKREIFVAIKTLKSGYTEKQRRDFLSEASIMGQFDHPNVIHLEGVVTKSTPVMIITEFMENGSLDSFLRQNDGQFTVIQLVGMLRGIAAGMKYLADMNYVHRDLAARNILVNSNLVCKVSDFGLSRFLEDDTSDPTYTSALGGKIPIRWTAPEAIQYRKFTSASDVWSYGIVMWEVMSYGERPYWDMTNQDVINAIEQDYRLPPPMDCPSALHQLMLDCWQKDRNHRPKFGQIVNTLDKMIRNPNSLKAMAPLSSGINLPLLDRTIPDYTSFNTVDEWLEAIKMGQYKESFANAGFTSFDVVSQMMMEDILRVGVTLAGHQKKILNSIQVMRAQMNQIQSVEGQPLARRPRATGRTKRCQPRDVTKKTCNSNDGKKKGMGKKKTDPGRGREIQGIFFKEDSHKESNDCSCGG

[9] = molecular target: Tyrosine-protein kinase Lck (Homo sapiens, UniProt P06239); experiment: Inhibition of LCK (unknown origin) assessed as residual activity at 10 uM incubated for 5 mins in presence of [gamma-33ATP] by scintillation counting based radiometry assay relative to control
Homo sapiens = organism: Homo sapiens; experiment: Inhibition of VEGFR (unknown origin) assessed as residual activity at 10 uM incubated for 5 mins in presence of [gamma-33ATP] by scintillation counting based radiometry assay relative to control
[10] = molecular target: T3, Mitogen-activated protein kinase kinase kinase kinase 3 (Homo sapiens) (UniProt Q8IVH8); experiment: Inhibition of MAP4K3 (unknown origin) assessed as residual activity at 10 uM incubated for 5 mins in presence of [gamma-33ATP] by scintillation counting based radiometry assay relative to control
T3 sequence (whole entry): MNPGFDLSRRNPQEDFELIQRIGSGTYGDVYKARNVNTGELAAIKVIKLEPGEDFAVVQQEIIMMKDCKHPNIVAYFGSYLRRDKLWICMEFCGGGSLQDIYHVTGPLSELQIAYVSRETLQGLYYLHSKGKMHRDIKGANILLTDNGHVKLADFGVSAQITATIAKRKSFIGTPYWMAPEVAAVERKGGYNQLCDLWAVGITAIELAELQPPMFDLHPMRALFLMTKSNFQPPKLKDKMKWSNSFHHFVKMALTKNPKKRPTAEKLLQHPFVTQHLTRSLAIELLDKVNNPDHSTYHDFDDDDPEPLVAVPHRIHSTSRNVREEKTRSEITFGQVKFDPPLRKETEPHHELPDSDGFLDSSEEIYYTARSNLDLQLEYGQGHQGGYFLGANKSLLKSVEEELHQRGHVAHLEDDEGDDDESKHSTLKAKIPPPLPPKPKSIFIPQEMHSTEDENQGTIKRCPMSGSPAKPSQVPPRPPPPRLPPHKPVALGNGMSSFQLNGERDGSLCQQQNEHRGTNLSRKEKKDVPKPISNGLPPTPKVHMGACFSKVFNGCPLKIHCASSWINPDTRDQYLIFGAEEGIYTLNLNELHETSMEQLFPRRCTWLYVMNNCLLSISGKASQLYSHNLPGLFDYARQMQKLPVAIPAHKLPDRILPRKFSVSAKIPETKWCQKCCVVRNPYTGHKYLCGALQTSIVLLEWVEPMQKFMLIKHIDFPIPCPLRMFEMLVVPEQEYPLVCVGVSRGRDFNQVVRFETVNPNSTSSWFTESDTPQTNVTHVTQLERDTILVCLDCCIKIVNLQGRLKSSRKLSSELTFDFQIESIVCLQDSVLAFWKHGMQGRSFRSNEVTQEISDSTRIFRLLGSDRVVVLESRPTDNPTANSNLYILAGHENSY

Sequence of Voltage-gated inwardly rectifying potassium channel KCNH2 (Q12809 whole entry): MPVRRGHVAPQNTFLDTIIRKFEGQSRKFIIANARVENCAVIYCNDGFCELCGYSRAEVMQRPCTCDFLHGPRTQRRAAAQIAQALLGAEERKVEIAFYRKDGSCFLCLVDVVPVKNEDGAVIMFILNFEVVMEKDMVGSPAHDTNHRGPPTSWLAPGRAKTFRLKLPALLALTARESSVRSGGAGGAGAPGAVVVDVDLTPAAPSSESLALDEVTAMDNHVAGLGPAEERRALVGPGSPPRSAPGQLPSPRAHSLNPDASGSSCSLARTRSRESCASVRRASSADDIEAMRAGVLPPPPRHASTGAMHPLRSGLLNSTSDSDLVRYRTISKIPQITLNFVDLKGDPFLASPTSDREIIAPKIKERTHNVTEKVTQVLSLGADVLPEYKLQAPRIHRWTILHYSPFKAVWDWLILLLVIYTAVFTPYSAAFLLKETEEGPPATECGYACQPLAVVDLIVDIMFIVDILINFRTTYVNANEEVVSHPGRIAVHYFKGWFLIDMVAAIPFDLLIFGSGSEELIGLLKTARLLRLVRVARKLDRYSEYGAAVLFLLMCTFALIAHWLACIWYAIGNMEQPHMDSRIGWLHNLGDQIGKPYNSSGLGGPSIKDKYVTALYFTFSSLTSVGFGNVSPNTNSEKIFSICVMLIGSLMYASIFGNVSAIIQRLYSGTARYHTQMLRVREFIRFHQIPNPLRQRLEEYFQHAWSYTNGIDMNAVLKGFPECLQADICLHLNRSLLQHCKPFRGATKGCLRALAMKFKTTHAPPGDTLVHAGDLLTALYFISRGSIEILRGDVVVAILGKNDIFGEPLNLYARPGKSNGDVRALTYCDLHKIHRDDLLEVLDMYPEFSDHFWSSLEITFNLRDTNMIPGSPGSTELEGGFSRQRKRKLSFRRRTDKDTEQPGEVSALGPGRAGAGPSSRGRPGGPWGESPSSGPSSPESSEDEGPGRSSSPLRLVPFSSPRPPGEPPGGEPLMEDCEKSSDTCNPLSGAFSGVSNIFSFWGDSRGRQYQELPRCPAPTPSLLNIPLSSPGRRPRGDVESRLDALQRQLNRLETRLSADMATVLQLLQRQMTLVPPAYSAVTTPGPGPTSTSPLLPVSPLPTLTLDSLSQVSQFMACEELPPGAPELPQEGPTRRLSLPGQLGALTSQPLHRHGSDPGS
Sequence of Tyrosine-protein kinase ABL1 (P00519 whole entry): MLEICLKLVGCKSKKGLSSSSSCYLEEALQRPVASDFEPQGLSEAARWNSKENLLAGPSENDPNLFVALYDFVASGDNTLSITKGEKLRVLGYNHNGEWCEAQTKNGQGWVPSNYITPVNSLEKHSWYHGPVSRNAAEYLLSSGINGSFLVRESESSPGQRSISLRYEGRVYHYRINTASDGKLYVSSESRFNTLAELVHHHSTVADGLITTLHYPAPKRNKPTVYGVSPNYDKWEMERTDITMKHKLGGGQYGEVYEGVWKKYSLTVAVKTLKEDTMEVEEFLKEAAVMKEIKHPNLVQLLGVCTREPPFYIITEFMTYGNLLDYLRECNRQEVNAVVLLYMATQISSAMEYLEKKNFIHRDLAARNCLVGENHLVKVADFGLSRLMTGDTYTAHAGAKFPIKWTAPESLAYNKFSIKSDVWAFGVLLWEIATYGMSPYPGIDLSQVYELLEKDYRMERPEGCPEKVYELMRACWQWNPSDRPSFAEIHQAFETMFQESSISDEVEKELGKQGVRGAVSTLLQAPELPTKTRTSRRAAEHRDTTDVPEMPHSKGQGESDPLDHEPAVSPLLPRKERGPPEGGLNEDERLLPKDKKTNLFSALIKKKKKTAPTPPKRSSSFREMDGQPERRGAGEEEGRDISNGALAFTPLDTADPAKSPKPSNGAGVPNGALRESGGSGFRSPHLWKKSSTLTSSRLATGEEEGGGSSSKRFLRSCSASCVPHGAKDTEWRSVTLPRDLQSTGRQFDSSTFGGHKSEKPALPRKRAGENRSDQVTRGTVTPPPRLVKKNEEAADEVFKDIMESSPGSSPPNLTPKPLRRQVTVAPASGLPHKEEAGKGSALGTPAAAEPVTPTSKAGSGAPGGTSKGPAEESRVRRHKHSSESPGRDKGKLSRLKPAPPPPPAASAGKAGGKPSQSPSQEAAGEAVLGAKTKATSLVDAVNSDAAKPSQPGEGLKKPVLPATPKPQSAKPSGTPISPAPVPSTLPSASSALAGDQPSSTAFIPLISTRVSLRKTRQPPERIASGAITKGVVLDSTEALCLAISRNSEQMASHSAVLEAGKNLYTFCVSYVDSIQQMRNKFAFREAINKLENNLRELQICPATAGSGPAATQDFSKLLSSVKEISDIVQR
Sequence of Cytochrome P450 3A4 (P08684 whole entry): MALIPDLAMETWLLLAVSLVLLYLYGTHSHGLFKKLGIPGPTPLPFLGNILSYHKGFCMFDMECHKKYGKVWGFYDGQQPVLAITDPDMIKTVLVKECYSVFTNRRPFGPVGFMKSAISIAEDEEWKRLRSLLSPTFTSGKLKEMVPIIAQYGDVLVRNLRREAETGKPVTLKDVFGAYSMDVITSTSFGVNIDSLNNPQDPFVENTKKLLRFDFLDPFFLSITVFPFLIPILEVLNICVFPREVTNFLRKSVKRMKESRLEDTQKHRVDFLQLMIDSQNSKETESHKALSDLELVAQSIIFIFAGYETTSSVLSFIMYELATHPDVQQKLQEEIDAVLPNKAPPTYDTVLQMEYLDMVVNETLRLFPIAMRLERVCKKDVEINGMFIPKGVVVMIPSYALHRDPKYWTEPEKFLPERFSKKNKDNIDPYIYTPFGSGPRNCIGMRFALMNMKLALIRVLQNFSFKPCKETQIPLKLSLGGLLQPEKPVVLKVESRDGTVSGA
Sequence of Tyrosine-protein kinase Lck (P06239 2-509 limits assumed): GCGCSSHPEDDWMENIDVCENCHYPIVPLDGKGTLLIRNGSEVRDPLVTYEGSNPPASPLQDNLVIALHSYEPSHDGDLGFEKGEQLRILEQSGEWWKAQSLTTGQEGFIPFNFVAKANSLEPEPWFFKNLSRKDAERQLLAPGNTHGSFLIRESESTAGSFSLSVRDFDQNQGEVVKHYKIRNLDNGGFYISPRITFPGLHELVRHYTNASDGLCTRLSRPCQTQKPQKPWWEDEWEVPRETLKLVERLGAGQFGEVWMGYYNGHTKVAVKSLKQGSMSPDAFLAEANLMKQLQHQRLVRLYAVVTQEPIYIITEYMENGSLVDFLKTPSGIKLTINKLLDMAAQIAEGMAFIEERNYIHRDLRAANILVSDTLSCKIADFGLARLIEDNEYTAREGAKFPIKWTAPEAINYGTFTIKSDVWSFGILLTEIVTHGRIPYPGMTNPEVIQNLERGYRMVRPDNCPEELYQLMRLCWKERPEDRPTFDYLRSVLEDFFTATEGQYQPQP
Sequence of Serine/threonine-protein kinase Nek6 (Q9HC98 whole entry): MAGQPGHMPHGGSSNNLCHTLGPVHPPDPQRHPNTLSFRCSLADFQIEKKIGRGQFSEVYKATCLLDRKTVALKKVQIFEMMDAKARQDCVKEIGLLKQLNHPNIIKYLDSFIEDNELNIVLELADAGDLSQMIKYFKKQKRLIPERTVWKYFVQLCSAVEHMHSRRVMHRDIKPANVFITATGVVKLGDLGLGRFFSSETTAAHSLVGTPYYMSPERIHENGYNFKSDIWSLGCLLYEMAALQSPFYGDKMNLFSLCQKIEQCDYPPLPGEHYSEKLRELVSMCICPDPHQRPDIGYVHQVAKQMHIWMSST
Sequence of Proto-oncogene tyrosine-protein kinase Src (P12931 2-536 limits assumed): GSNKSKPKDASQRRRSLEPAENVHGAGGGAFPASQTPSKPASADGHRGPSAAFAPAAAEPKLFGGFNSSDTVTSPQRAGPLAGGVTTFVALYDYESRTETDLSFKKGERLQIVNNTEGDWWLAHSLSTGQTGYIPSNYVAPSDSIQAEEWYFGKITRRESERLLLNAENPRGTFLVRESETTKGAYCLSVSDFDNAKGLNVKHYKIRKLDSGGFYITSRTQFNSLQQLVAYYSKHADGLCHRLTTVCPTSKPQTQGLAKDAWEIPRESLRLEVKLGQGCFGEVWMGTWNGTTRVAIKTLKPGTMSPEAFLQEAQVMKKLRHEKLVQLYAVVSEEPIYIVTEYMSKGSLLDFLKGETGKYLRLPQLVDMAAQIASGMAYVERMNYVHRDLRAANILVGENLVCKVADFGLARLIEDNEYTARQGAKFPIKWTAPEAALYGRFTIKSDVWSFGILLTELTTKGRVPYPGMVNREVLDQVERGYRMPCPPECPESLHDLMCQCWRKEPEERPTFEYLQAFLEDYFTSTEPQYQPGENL

Row | Compound | IC50 [1] [nM] | IC50 (Cytochrome P450 3A4) [nM] | half-life at 3 µM [3] [h] | half-life at 3 µM [4] [h] | IC50 [2] [nM] | other results
1 | Cc1ccc(C(=O)Nc2ccc(CN3CCN(CCO)CC3)c(Cl)c2)cc1C#Cc1cnc2cccnn12 | 0.39 | 13400 | – | – | 100 | –
2 | Cc1ccc(C(=O)Nc2ccc(CN3Cc4ccc(O)cc4C3)c(Cl)c2)cc1C#Cc1cnc2cccnn12 | > 30 | – | 2.63 | 0.441 | – | –
3 | Cc1ccc(C(=O)Nc2ccc(CN3CCN(C)CC3)c(C(F)(F)F)c2)cc1C#Cc1cnc2cccnn12 [PONATINIB] | – | – | 3.04 | 0.532 | – | Activity [5]: 3%; Activity [6]: 52%; Activity [7]: 11%; Activity [8]: 2%; Activity [9]: 29%; Activity (Homo sapiens): 28%; Activity [10]: 2%

The next lines start with results.

Row | IC50 [1] [nM] | IC50 (Cytochrome P450 3A4) [nM] | half-life at 3 µM [3] [h] | half-life at 3 µM [4] [h] | Compound | IC50 [2] [nM] | other results
4 | – | 13500 | – | – | COCCN1CCN(Cc2ccc(NC(=O)c3ccc(C)c(C#Cc4cnc5cccnn45)c3)cc2C2CC2)CC1 | 80 | –
5 | 0.3 | – | – | – | Cc1ccc(C(=O)Nc2ccc(CN3CCN(CCO)CC3)c(C3CC3)c2)cc1C#Cc1cnc2cccnn12 | 340 | –
